Series [1] deals with BCR-ABL1. The note with it: cited from earlier work.
Series [2] deals with GMR-GAL4>w1118 control flies. The note with it: in vivo.
The test system of series [3] is GMR-GAL4>w1118 control flies. Description: Eye development of control flies fed TKI (SEM).

Consider 4 molecules from patent US20200037588A1, “METHODS OF A DROSOPHILA MODEL FOR CHRONIC MYELOID LEUKEMIA (CML) TREATMENT” (American University of Beirut, priority 2018, published 2020).

Like-named read-outs stand apart in the source and are kept apart here.

Consider `Cc1cn(-c2cc(NC(=O)c3ccc(C)c(Nc4nccc(-c5cccnc5)n4)c3)cc(C(F)(F)F)c2)cn1` [nilotinib], for which the “potency for BCR-AB1L inhibition in vitro compared to imatinib” value in series [1] is listed as 20 fold. The “eye development in control flies fed drug (in words)” value (from here on “eye development”) in series [2] is recorded as “Normal development”.

With `Cc1ccc(C(=O)Nc2ccc(CN3CCN(C)CC3)c(C(F)(F)F)c2)cc1C#Cc1cnc2cccnn12` [ponatinib], the “eye development” value in series [3] is recorded as “Normal development”. Take `Cc1nc(Nc2ncc(C(=O)Nc3c(C)cccc3Cl)s2)cc(N2CCN(CCO)CC2)n1` [dasatinib]: the “eye development” value in series [2] is on record as “Normal development”. The same measure, in the same setting: then `Cc1ccc(NC(=O)c2ccc(CN3CCN(C)CC3)cc2)cc1Nc1nccc(-c2cccnc2)n1` [imatinib], with “Normal development”.
